In PubChem BioAssay AID1552 (Sanford-Burnham Center for Chemical Genomics, 2009):
Active and inactive are the calls of the source. How the calls were made is not given here.

These compounds were tested against Ubiquitin-conjugating enzyme E2 N (Homo sapiens) (UniProt P61088) (assay: NMR detection of UBE2N ligand binding – biophysical, purified protein (AID 1552)). Details: NMR binding to purified UBE2N.
Sequence of Ubiquitin-conjugating enzyme E2 N (Homo sapiens) (P61088 whole entry, looked up): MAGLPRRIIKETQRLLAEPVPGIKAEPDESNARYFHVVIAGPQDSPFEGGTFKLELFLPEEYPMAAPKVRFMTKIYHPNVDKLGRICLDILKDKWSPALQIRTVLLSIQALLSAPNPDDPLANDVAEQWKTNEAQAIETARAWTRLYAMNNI
With `CC[C@H]1CN2CCc3cc(OC)c(OC)cc3C2C[C@@H]1CC1NCCc2cc(OC)c(OC)cc21` (some centres not stated) the Kd was > 4 mM (inactive). With `Cn1[nH]c2nc3[nH]n(C)c(=O)c3c(-c3ccccc3)c2c1=O` the Kd was > 4 mM (inactive). `O=C(c1nc2ncccn2n1)N1CCc2ccccc2C1` was tested, and the Kd was > 4 mM (inactive). `CCOCC(=O)NCc1n[nH]c(=O)c2ccccc12` was tested, and the Kd was > 4 mM (inactive). `COC(=O)Nc1nc2c(C)cccc2s1` was tested, and the Kd was > 4 mM (inactive). With `CC(=O)c1cc(C(N)=O)c(=S)[nH]c1C` the Kd was > 4 mM (inactive). For `CSc1nnc2ccc(-c3cccnc3)nn12`, the Kd was > 4 mM (inactive). For `Cn1c(NCc2ccccc2O)nc2ccccc21`, the Kd was > 4 mM (inactive). `Cn1c(NCc2ccco2)nc2ccccc21` was tested, and the Kd was > 4 mM (inactive). With `Fc1ccc(N2CCNCC2)cc1` the Kd was > 4 mM (inactive). In the case of `CN(C)C(=O)c1ccc(-c2n[nH]c(=O)c3ccccc23)cc1`, the Kd is reported as > 4 mM (inactive). `O=C(CN1C(=O)CCC1=O)c1ccccc1` was tested, and the Kd was > 4 mM (inactive). For `O=c1c(O)c(-c2ccc(O)c(O)c2)oc2cc(O)ccc12`, the Kd was > 4 mM (inactive). In the case of `CC(=O)OC/C=C(\C)CC/C=C(\C)CC/C=C(\C)CC/C=C(\C)CC/C=C(\C)CC/C=C(\C)CC/C=C(\C)CC/C=C(\C)CCC=C(C)C`, the Kd is reported as > 4 mM (inactive). For `Cc1c(CO)cnn1-c1ccc(F)cc1`, the Kd was > 4 mM (inactive). `COc1cc([C@@H]2c3cc4c(cc3[C@H](OC(C)=O)[C@H]3COC(=O)[C@H]23)OCO4)cc(OC)c1OC` was tested, and the Kd was > 4 mM (inactive). In the case of `Cn1ccc(NC(=S)Nc2cccc([N+](=O)[O-])c2)n1`, the Kd is reported as > 4 mM (inactive). With `CC(=O)Nc1ccc(S(=O)(=O)NC2=NCCS2)cc1` the Kd was > 4 mM (inactive). In the case of `CC(=O)NC(c1ccccc1)c1cccnc1` (configuration not stated), the Kd is reported as > 4 mM (inactive). With `COc1c(-c2ccccc2)oc2c(OC)cccc2c1=O` the Kd was > 4 mM (inactive). In the case of `CC(=O)NC(=S)Nc1ccccc1C`, the Kd is reported as > 4 mM (inactive). With `NC(=O)CC[C@H](N)C(=O)O` the Kd was > 4 mM (inactive). With `COC(=O)[C@@H]1C(O)CC[C@H]2CN3CCc4c([nH]c5ccccc45)[C@@H]3C[C@@H]21` (some centres not stated) the Kd was > 4 mM (inactive). With `CC(=O)c1ccc(NC(=O)c2ocnc2C)cc1` the Kd was > 4 mM (inactive). `CN(c1ccccc1C(=O)N1CCCC1)S(C)(=O)=O` was tested, and the Kd was > 4 mM (inactive). With `NC(=O)COc1cccc2cccnc12` the Kd was > 4 mM (inactive). For `COC(=O)c1cccs1`, the Kd was > 4 mM (inactive). With `O=C(NC1CCS(=O)(=O)C1)c1ccccc1` (configuration not stated) the Kd was > 4 mM (inactive). With `C=CCN1CC[C@]23c4c5ccc(O)c4OC2C(=O)CC[C@@]3(O)[C@H]1C5` (some centres not stated) the Kd was > 4 mM (inactive). In the case of `Cn1nc(C(=O)N2CCCC2)c2ccccc2c1=O`, the Kd is reported as > 4 mM (inactive). `c1ccc(-c2nc3ccccc3nc2-c2ccccn2)nc1` was tested, and the Kd was > 4 mM (inactive). `O=c1cc(-c2ccc(O)cc2)oc2cc(O[C@@H]3O[C@H](CO)[C@@H](O)[C@H](O)[C@H]3O[C@@H]3OC[C@](O)(CO)[C@H]3O)cc(O)c12` was tested, and the Kd was > 4 mM (inactive). For `CN(C)S(=O)(=O)c1ccc(NC=O)cc1`, the Kd was > 4 mM (inactive). For `CC(=O)OCC(=O)[C@@]1(O)CCC2C3CC[C@@H]4C[C@H](OC(C)=O)CC[C@]4(C)C3C(=O)C[C@@]21C` (some centres not stated), the Kd was > 4 mM (inactive). With `O=c1sc2ccccc2n1CN1CCOCC1` the Kd was > 4 mM (inactive). In the case of `O=C(O)c1sccc1-n1cccc1`, the Kd is reported as > 4 mM (inactive). `NC(=S)NC1CCS(=O)(=O)C1` (configuration not stated) was tested, and the Kd was > 4 mM (inactive). `O[C@H]1C=C2CCN3Cc4cc5c(cc4C(C23)[C@@H]1O)OCO5` (some centres not stated) was tested, and the Kd was > 4 mM (inactive). `C=C[C@@](C)(O)CCC1C(=C)C[C@H](O)C2C(C)(C)CCCC12C` (some centres not stated) was tested, and the Kd was > 4 mM (inactive). In the case of `CC(C)Oc1ccc(C2CC(=O)NNC2=O)cc1` (configuration not stated), the Kd is reported as > 4 mM (inactive). With `O=C1CC(N2CCC(O)CC2)C(=O)N1c1ccc(F)cc1` (configuration not stated) the Kd was > 4 mM (inactive). With `Cn1cnnc1Sc1ncnc(N)c1[N+](=O)[O-]` the Kd was > 4 mM (inactive). With `O=C(O)CSc1nc2ccccc2c(=O)[nH]1` the Kd was > 4 mM (inactive). In the case of `NS(=O)(=O)c1ccc(N=Cc2cccs2)cc1`, the Kd is reported as > 4 mM (inactive). For `Oc1cnc2ccccc2c1CN1CCOCC1`, the Kd was > 4 mM (inactive). With `Cc1cc(N)on1` the Kd was > 4 mM (inactive). `COc1ccc(-c2coc3cc(O)ccc3c2=O)cc1` was tested, and the Kd was > 4 mM (inactive). In the case of `CC(=O)NC1=NN(c2ccccc2)C(=O)C1`, the Kd is reported as > 4 mM (inactive). With `CNS(=O)(=O)c1cccs1` the Kd was > 4 mM (inactive). With `CC(C)Nc1nc2n(c(=O)n1)CCN2C(C)C` the Kd was > 4 mM (inactive). `COC(=O)c1cccnc1Oc1ccccc1` was tested, and the Kd was > 4 mM (inactive). `Cn1c(=O)c2[nH]cnc2n(C)c1=O` was tested, and the Kd was > 4 mM (inactive). In the case of `CCOC(=O)c1csc(N)n1`, the Kd is reported as > 4 mM (inactive). `COc1cc2c(cc1OC)[C@@H]1C(=O)c3ccc(O)c(CC=C(C)C)c3O[C@@H]1CO2` was tested, and the Kd was > 4 mM (inactive). For `CN1CCN(C2CCSC2)CC1` (configuration not stated), the Kd was > 4 mM (inactive). For `COc1ccc(NC(=O)/C=N/O)cc1`, the Kd was > 4 mM (inactive). With `Nc1nnc(SCc2cccnc2)s1` the Kd was > 4 mM (inactive). `CC1(C)CC[C@]2(C(=O)O)CC[C@]3(C)C(=CCC4[C@@]5(C)CC[C@@H](O)C(C)(C)C5CC[C@]43C)C2C1` (some centres not stated) was tested, and the Kd was > 4 mM (inactive). For `Cc1oc2nc3c(c(=O)[nH]c(=O)n3C)n2c1C`, the Kd was > 4 mM (inactive). `CC(=O)c1c(O)c(C)c(O)c2c1OC1=CC(=O)C(C(C)=O)C(=O)C12C` (configuration not stated) was tested, and the Kd was > 4 mM (inactive). In the case of `Cn1c(CO)nc2cc(N)ccc21`, the Kd is reported as > 4 mM (inactive). In the case of `OCc1sccc1-n1cccc1`, the Kd is reported as > 4 mM (inactive). For `CC(=O)C1=C(O)C(=O)NC1c1ccccc1` (configuration not stated), the Kd was > 4 mM (inactive). In the case of `CC(=O)O[C@@H]1C=C[C@@]2(C)C(C[C@@H](OC(C)=O)[C@@]3(C)C4=CC(=O)O[C@@H](c5ccoc5)[C@]4(C)CCC23)C1(C)C` (some centres not stated), the Kd is reported as > 4 mM (inactive). With `OCCOc1ccc(C2=NCCO2)cc1` the Kd was > 4 mM (inactive). In the case of `O=C1C2C3C=CC(O3)C2C(=O)N1c1ccccc1` (configuration not stated), the Kd is reported as > 4 mM (inactive). In the case of `CC1O[C@@H](Oc2c(-c3ccc(O)c(O)c3)oc3cc(O)cc(O)c3c2=O)[C@H](O)[C@H](O)[C@H]1O` (some centres not stated), the Kd is reported as > 4 mM (inactive). With `O=C(CSc1ncn[nH]1)c1ccc2c(c1)OCCO2` the Kd was > 4 mM (inactive). `Cn1c(=O)cc(O)c2ccccc21` was tested, and the Kd was > 4 mM (inactive). For `CC1(C)CC[C@]2(C)CC[C@]3(C)C(=CCC4[C@@]5(C)CC[C@H](O)C(C)(C)C5CC[C@]43C)C2C1` (some centres not stated), the Kd was > 4 mM (inactive). For `O=C(NN1CCOCC1)c1cccs1`, the Kd was > 4 mM (inactive). For `Cc1cc(C)nc(NC(N)=NCc2ccco2)n1`, the Kd was > 4 mM (inactive). In the case of `O=C(CSc1ncccn1)NCc1ccco1`, the Kd is reported as > 4 mM (inactive). With `S=C1NC(=S)NC(c2ccc3c(c2)OCO3)N1` the Kd was > 4 mM (inactive). For `CC1CN(C2=NCCN2)CC(C)O1` (configuration not stated), the Kd was > 4 mM (inactive). For `c1ccc(-c2n[nH]c(-c3ccccn3)n2)nc1`, the Kd was > 4 mM (inactive). `CN(C)S(=O)(=O)NCc1ccc2c(c1)OCO2` was tested, and the Kd was > 4 mM (inactive). For `O=C(CSc1ccccc1)N1CCC2(CC1)OCCO2`, the Kd was > 4 mM (inactive). `CN1CCCC1C(=O)O` (configuration not stated) was tested, and the Kd was > 4 mM (inactive). `C=C(C)C1(O)OC(=O)C=C1OC` (configuration not stated) was tested, and the Kd was > 4 mM (inactive). In the case of `c1ccc2c(c1)nnn2C1CCNCC1`, the Kd is reported as > 4 mM (inactive). With `Cc1cccnc1NC1=NCC(C)S1` (configuration not stated) the Kd was > 4 mM (inactive). For `Cn1c(CN)nc2ccccc21`, the Kd was > 4 mM (inactive). In the case of `Cc1onc(-c2ccccc2)c1CO`, the Kd is reported as > 4 mM (inactive). For `Cn1c(SCC(N)=O)nnc1-c1c[nH]c2ccccc12`, the Kd was > 4 mM (inactive). For `COc1c2ccccc2nc2occc12`, the Kd was > 4 mM (inactive). In the case of `Cn1nc(C(=O)Nc2cccnc2)cc1Cl`, the Kd is reported as > 4 mM (inactive). With `OCc1nc2ccccc2s1` the Kd was > 4 mM (inactive). In the case of `CC(=O)Nc1cnn(Cc2ccc(Br)cc2)c1`, the Kd is reported as > 4 mM (inactive). `Cc1ccc(-n2ncc(C#N)c2/N=C/N(C)C)cc1` was tested, and the Kd was > 4 mM (inactive). In the case of `CC(=O)Oc1cccc2ccc(=O)[nH]c12`, the Kd is reported as > 4 mM (inactive). In the case of `CN=C1SC(CC(=O)Nc2ccc(O)cc2)C(=O)N1C` (configuration not stated), the Kd is reported as > 4 mM (inactive). In the case of `CN(C(=O)NC1CCS(=O)(=O)C1)C1CCCCC1` (configuration not stated), the Kd is reported as > 4 mM (inactive). For `CC1(C)C(=O)N(O)C(C)(C)C(=O)N1O`, the Kd was > 4 mM (inactive). `O=C(Nc1nnc(-c2ccco2)o1)C1=COCCO1` was tested, and the Kd was > 4 mM (inactive). For `O=c1cnnc(N2CCCCC2)[nH]1`, the Kd was > 4 mM (inactive). `O=C(O)CNS(=O)(=O)c1cccs1` was tested, and the Kd was > 4 mM (inactive). `O=C(Nc1ccc2c(c1)CCC2)c1cnccn1` was tested, and the Kd was > 4 mM (inactive). For `CC(=O)c1ccc(CC2SC(N)=NC2=O)cc1` (configuration not stated), the Kd was > 4 mM (inactive). With `COc1cccc(/C=C2/SC(N)=NC2=O)c1` the Kd was > 4 mM (inactive). For `COc1cc2ccc(=O)oc2c2ccoc12`, the Kd was > 4 mM (inactive). For `CC(C)CCn1cnc2c1c(=O)n(C)c(=O)n2C`, the Kd was > 4 mM (inactive). For `CNC(=S)Nc1ncn(Cc2cccc(F)c2)n1`, the Kd was > 4 mM (inactive). `CN1CN(Cc2ccccc2)CN/C1=N/[N+](=O)[O-]` was tested, and the Kd was > 4 mM (inactive). `CC(C)CCCC(C)C1CCC2C3CC(=O)[C@H]4C[C@@H](O)CC[C@]4(C)C3CC[C@]12C` (some centres not stated) was tested, and the Kd was > 4 mM (inactive). `Cc1nn(CC(=O)Nc2ccccc2)c(=O)c2ccccc12` was tested, and the Kd was > 4 mM (inactive). For `NCc1ccc2c(c1)CCO2`, the Kd was > 4 mM (inactive). For `O=C(NCc1n[nH]c(=O)c2ccccc12)C1CC1`, the Kd was > 4 mM (inactive). In the case of `Cc1ccc(S(=O)(=O)CCc2ccccn2)cc1`, the Kd is reported as > 4 mM (inactive). `C=CCSCC=C` was tested, and the Kd was > 4 mM (inactive). In the case of `CSc1ccccc1NC(=O)c1ccco1`, the Kd is reported as > 4 mM (inactive). `Cc1ccc(C(C)C)cc2c(C)ccc1-2` was tested, and the Kd was > 4 mM (inactive). With `CN(C)c1ccc(N2C(=O)CCC2=O)cc1` the Kd was > 4 mM (inactive). With `O=C(Nc1c[nH]c(=O)[nH]c1=O)c1ccccc1F` the Kd was > 4 mM (inactive). In the case of `CCOC(=O)CC1Sc2ccccc2NC1=O` (configuration not stated), the Kd is reported as > 4 mM (inactive). In the case of `Cc1cccn2cc(CNc3ccccc3)nc12`, the Kd is reported as > 4 mM (inactive). `Cc1cc2ncc(C(=O)Nc3ccccc3)c(C)n2n1` was tested, and the Kd was > 4 mM (inactive).
